Assay results taken from PubChem BioAssay AID651879 (NMMLSC, 2012).
Active and inactive are the calls of the source. The rule behind the calls is not given here.

Target: Botulinum neurotoxin type A light chain protease (Clostridium botulinum A str. ATCC 3502)
Assay: Botulinum neurotoxin type A light chain protease inhibitors, multiplex microsphere dose response, confirmatory (AID 651879)
Conditions: multiplex microsphere protease cleavage assay, flow cytometry

Compound	EC50
c1ccc(C2CC(c3ccccn3)=NN2c2ccccc2)cc1 (centres undefined)	> 20 µM (inactive)
c1ccc(C2CC(c3cccnc3)=NN2c2ccccc2)cc1 (centres undefined)	> 20 µM (inactive)
CS(=O)(=O)c1ccc(N2N=C(c3ccccc3)CC2c2ccccc2)cc1 (centres undefined)	> 20 µM (inactive)
CSc1ccc(C2=NN(c3ccc(S(C)(=O)=O)cc3)C(c3ccccc3)C2)cc1 (centres undefined)	> 20 µM (inactive)
COc1ccc(N2N=C(c3ccncc3)CC2c2ccccc2)cc1 (centres undefined)	> 20 µM (inactive)
CS(=O)(=O)c1ccc(N2N=C(c3cccnc3)CC2c2ccccc2)cc1 (centres undefined)	> 20 µM (inactive)
c1ccc(C2CC(c3ccncc3)=NN2c2ccccc2)cc1 (centres undefined)	> 20 µM (inactive)
CC(C)CNC(=O)c1ccc(N2N=C(c3ccccc3)CC2c2ccccc2)cc1 (centres undefined)	> 20 µM (inactive)
CNC(=O)c1ccc(N2N=C(c3ccc(SC)cc3)CC2c2ccccc2)cc1 (centres undefined)	> 20 µM (inactive)
NS(=O)(=O)c1ccc(N2N=C(c3ccncc3)CC2c2ccccc2)cc1 (centres undefined)	> 20 µM (inactive)
COc1ccc(N2N=C(c3cccnc3)CC2c2ccccc2)cc1 (centres undefined)	> 20 µM (inactive)
O=[N+]([O-])c1ccc(N2N=C(c3ccccc3)CC2c2ccccc2)cc1 (centres undefined)	> 20 µM (inactive)
CS(=O)(=O)c1ccc(N2N=C(c3ccncc3)CC2c2ccccc2)cc1 (centres undefined)	> 20 µM (inactive)
COc1ccc(N2N=C(c3ccccc3)CC2c2ccccc2)cc1 (centres undefined)	> 20 µM (inactive)
CC(C)NC(=O)c1ccc(N2N=C(c3ccccc3)CC2c2ccccc2)cc1 (centres undefined)	> 20 µM (inactive)
COc1ccc(N2N=C(c3ccc(SC)cc3)CC2c2ccccc2)cc1 (centres undefined)	> 20 µM (inactive)
NS(=O)(=O)c1ccc(N2N=C(c3ccccc3)CC2c2ccccc2)cc1 (centres undefined)	> 20 µM (inactive)
CSc1ccc(C2=NN(c3ccccc3)C(c3ccccc3)C2)cc1 (centres undefined)	> 20 µM (inactive)
CSc1ccc(C2=NN(c3ccc([N+](=O)[O-])cc3)C(c3ccccc3)C2)cc1 (centres undefined)	0.5 µM
CNC(=O)c1ccc(N2N=C(c3ccccc3)CC2c2ccccc2)cc1 (centres undefined)	> 20 µM (inactive)
CSc1ccc(C2=NN(c3ccc(S(N)(=O)=O)cc3)C(c3ccccc3)C2)cc1 (centres undefined)	> 20 µM (inactive)
c1ccc(C2=NN(c3ccccc3)C(c3ccccc3)C2)cc1 (centres undefined)	> 20 µM (inactive)
COc1ccc(N2N=C(c3ccccn3)CC2c2ccccc2)cc1 (centres undefined)	> 20 µM (inactive)
c1ccc(-c2cc(-c3ccccc3)n(-c3ccccc3)n2)cc1	> 20 µM (inactive)
O=C(c1ccc(N2N=C(c3ccccc3)CC2c2ccccc2)cc1)N1CCOCC1 (centres undefined)	> 20 µM (inactive)
O=C(c1ccc(N2N=C(c3ccccc3)CC2c2ccccc2)cc1)N1CCCCC1 (centres undefined)	> 20 µM (inactive)
CSc1ccc(C2=NN(c3ccc(C(=O)N4CCCCC4)cc3)C(c3ccccc3)C2)cc1 (centres undefined)	> 20 µM (inactive)
NS(=O)(=O)c1ccc(N2N=C(c3cccnc3)CC2c2ccccc2)cc1 (centres undefined)	> 20 µM (inactive)
CSc1ccc(C2=NN(c3ccc(C(=O)N4CCOCC4)cc3)C(c3ccccc3)C2)cc1 (centres undefined)	> 20 µM (inactive)
